The source of these data is patent publication US9193731B2, “Antimicrobial compounds and methods of making and using the same” (Melinta Therapeutics, Inc., priority 2009, dated 2015).

Broadly, the MIC is the lowest concentration found to suppress growth.

In the assay the test system is Escherichia coli strain ATCC25922. Put plainly: standard microdilution assay to determine minimum inhibitory concentrations (MICs). The class given is cell-based. Particulars: for MIC: Escherichia coli, ATCC25922, Escherichia coli strain ATCC25922, microdilution, read-out: E. coli ATCC25922 MIC; for E. coli ATCC25922 MIC: Escherichia coli strain ATCC25922, microdilution. In a few lines: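 Broth microdilution MIC against E. coli ATCC25922, following CLSI protocols, typically in a 100 microliter final volume. Results reported as +/− relative to a 16 micrograms/ml cutoff.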
Background: In broth dilution the organism is exposed to a series of concentrations in liquid medium.

A value given as a limit tells only on which side of the number the result lay.

`N=C(N)NCCCNCc1ccc(-n2cc3cc(-c4ccccc4OCCCN4CCNCC4)[nH]c3nc2=O)cc1` [Compound 1166]: the minimal inhibitory concentration (MIC) was greater than 16 µg/mL.

Turning to `CN(C)CCCOc1cccc(-c2cc3cn(-c4ccc(CNCCCNC(=N)N)cc4)c(=O)nc3[nH]2)c1` [Compound 1181], the MIC was less than 16 µg/mL.

Turning to `N=C(N)NCCCNCc1ccc(-n2cc3cc(C4CCCN(CC(O)CN)C4)[nH]c3nc2=O)cc1` (stereo not drawn) [Compound 1422], the “E. coli ATCC25922 MIC” value was “+ (a “+” indicates that the compound has an MIC value of 16 micrograms/ml or less)”. For the compound `NCCCNCc1ccc(-c2cn3cc(-c4ccc(S(=O)(=O)N5CCOCC5)cc4)[nH]c3nc2=O)cc1` [Compound 746], the minimum inhibitory concentration (MIC) is greater than 16 µg/mL. `NCc1ccc(-n2cc3cc(-c4cccc(S(=O)(=O)N(CCc5ccc(F)cc5)C5CCNCC5)c4)[nH]c3nc2=O)cc1` [Compound 1160]: the MIC is greater than 16 µg/mL. Consider `N=C(N)NCCCNCc1ccc(-n2cc3cc(-c4ccc(S(=O)(=O)N(CCCC5CCCC5)C5CCNCC5)cc4)[nH]c3nc2=O)cc1` [Compound 840], for which the “E. coli ATCC25922 MIC” value was “+ (a “+” indicates that the compound has an MIC value of 16 micrograms/ml or less)”. As to `N=C(N)NCCCNCc1ccc(-n2cc3cc(-c4ccc(NC(=O)CNC5CCNCC5)cc4)[nH]c3nc2=O)cc1` [Compound 1290], the “E. coli ATCC25922 MIC” value is “+ (a “+” indicates that the compound has an MIC value of 16 micrograms/ml or less)”. In the case of `NCCCCCN1CC=C(n2cc3cc(-c4ccc(C(=O)NC5CCNCC5)cc4)[nH]c3nc2=O)CC1` [Compound 507], the minimal inhibitory concentration (MIC) is less than 16 µg/mL.

Take `N=C(N)NCCCNCc1ccc(-n2cc3cc(-c4ccc(S(=O)(=O)N(CC5COc6ccccc6O5)C5CCOCC5)cc4)[nH]c3nc2=O)cc1` (stereo not drawn) [Compound 877]: the “E. coli ATCC25922 MIC” value was “− (a “−” indicates that the compound has an MIC value greater than 16 micrograms/ml)”. In the case of `CN1CCN(c2cccc(-c3cc4cn(-c5ccc(CNCCCN)cc5)c(=O)nc4[nH]3)c2)CC1` [Compound 677], the MIC is less than 16 µg/mL.

Regarding `N=C(N)NOCCNC(=O)c1ccc(-n2cc3cc(-c4ccc(S(=O)(=O)NC5CCNCC5)cc4)[nH]c3nc2=O)cc1` [Compound 1137], the “E. coli ATCC25922 MIC” value was “− (a “−” indicates that the compound has an MIC value greater than 16 micrograms/ml)”.

Turning to `NC(=O)COc1cccc(-n2cc3cc(-c4ccc(S(=O)(=O)NC5CCNCC5)cc4)[nH]c3nc2=O)c1` [Compound 1253], the minimal inhibitory concentration (MIC) was greater than 16 µg/mL.

`N=C(N)NCCCNCc1ccc(-n2cc3cc(-c4cccc(S(=O)(=O)NCCN)c4)[nH]c3nc2=O)cc1` [Compound 2007a]: the “E. coli ATCC25922 MIC” value is reported as “+ (a “+” indicates that the compound has an MIC value of 16 micrograms/ml or less)”. On to `NC(N)=NCCCNCc1ccc(-n2cc3cc(-c4cccc(S(=O)(=O)N(CCc5ccc(O)cc5)C5CCNCC5)c4)[nH]c3nc2=O)cc1` [Compound 1214], for which the “E. coli ATCC25922 MIC” value is reported as “+ (a “+” indicates that the compound has an MIC value of 16 micrograms/ml or less)”.

`N=C(N)NCCCNCc1ccc(-c2cn3cc(-c4ccc(C(=O)NC56CC7CC(CC(C7)C5)C6)cc4)[nH]c3nc2=O)cc1` [Compound 724]: the MIC was less than 16 µg/mL. Regarding `NCc1ccc(-n2cc3cc(-c4cccc(S(=O)(=O)N(CCc5ccc(O)cc5)C5CCNCC5)c4)[nH]c3nc2=O)cc1` [Compound 1182], the MIC is greater than 16 µg/mL. `CCNCCc1cc(OCC(F)CN)cc(-c2cc3cn(-c4ccc(CNCCCNC(=N)N)cc4)c(=O)nc3[nH]2)c1` (stereo not drawn) [Compound 2033a]: the “E. coli ATCC25922 MIC” value was “+ (a “+” indicates that the compound has an MIC value of 16 micrograms/ml or less)”. Turning to `NCCCNCc1ccc(-n2cc3cc(-c4ccc(S(=O)(=O)N(CC5CCOCC5)C5CCCNC5)cc4)[nH]c3nc2=O)cc1` (stereo not drawn) [Compound 830], the MIC was greater than 16 µg/mL. In the case of `N=C(N)NCCCNCc1ccc(-c2cn3cc(-c4ccc(C(=O)N5CCN(CCO)CC5)cc4)[nH]c3nc2=O)cc1` [Compound 713], the MIC was less than 16 µg/mL. In the case of `CSc1cc(CCCCN)cc(-c2cc3cn(-c4ccc(CNCCCNC(=N)N)cc4)c(=O)nc3[nH]2)c1` [Compound 2066a], the “E. coli ATCC25922 MIC” value was “+ (a “+” indicates that the compound has an MIC value of 16 micrograms/ml or less)”. Turning to `NCc1ccc(-n2cc3cc(-c4ccc(S(=O)(=O)N(CCCC5CCCC5)C5CCNCC5)cc4)[nH]c3nc2=O)cc1` [Compound 946], the MIC is greater than 16 µg/mL.

As to `COc1cc(-n2cc3cc(-c4cccc(OCC(F)CN)c4)[nH]c3nc2=O)ccc1CNCCCNC(=N)N` (stereo not drawn) [Compound 1391], the “E. coli ATCC25922 MIC” value is listed as “+ (a “+” indicates that the compound has an MIC value of 16 micrograms/ml or less)”. On to `CC(=O)NCCCS(=O)(=O)c1ccc(-c2cc3cn(-c4ccc(C(=O)NCCCNC(=N)N)cc4)c(=O)nc3[nH]2)cc1` [Compound 1274], for which the “E. coli ATCC25922 MIC” value is given as “− (a “−” indicates that the compound has an MIC value greater than 16 micrograms/ml)”. Take `N=C(N)NCCCNCc1ccc(-n2cc3cc(C4CCCC(CNCCN)C4)[nH]c3nc2=O)cc1` (stereo not drawn) [Compound 2026a]: the MIC is less than 16 µg/mL. Consider `N=C(N)NCCCNCc1ccc(-n2cc3cc(-c4cc(C(=O)NCCc5ccc(F)cc5)cc(N5CCNCC5)c4)[nH]c3nc2=O)cc1` [Compound 963], for which the “E. coli ATCC25922 MIC” value is given as “+ (a “+” indicates that the compound has an MIC value of 16 micrograms/ml or less)”. Turning to `N=C(N)NC(=O)CCNCc1ccc(-n2cc3cc(-c4ccc(S(=O)(=O)NC5CCNCC5)cc4)[nH]c3nc2=O)cc1` [Compound 1173], the “E. coli ATCC25922 MIC” value is “− (a “−” indicates that the compound has an MIC value greater than 16 micrograms/ml)”.

For `CC(C)(C)c1ccc(-c2cc3cn(-c4ccc(CNCCCN)cc4)c(=O)nc3[nH]2)cc1` [Compound 634], the MIC was less than 16 µg/mL. In the case of `NCCCNC(=O)c1ccc(-n2cc3cc(-c4ccc(S(=O)(=O)NC5CCNCC5)cc4)[nH]c3nc2=O)cc1` [Compound 892], the “E. coli ATCC25922 MIC” value is “+ (a “+” indicates that the compound has an MIC value of 16 micrograms/ml or less)”.

`NCCCNCc1ccc(-n2cc3cc(-c4cccc(S(=O)(=O)NC5CCNCC5)c4)[nH]c3nc2=O)cc1` [Compound 823]: the “E. coli ATCC25922 MIC” value was “+ (a “+” indicates that the compound has an MIC value of 16 micrograms/ml or less)”. In the case of `N=C(N)NCCCNCc1ccc(-n2cc3cc(C4CCCNC4)[nH]c3nc2=O)cc1` (stereo not drawn) [Compound 1210], the MIC is less than 16 µg/mL. On to `N=C(N)NCCCNCc1ccc(-n2cc3cc(C4CCN(CC(O)CN)C4)[nH]c3nc2=O)cc1` (stereo not drawn) [Compound 1456], for which the “E. coli ATCC25922 MIC” value is “+ (a “+” indicates that the compound has an MIC value of 16 micrograms/ml or less)”.

For the compound `CC(CN)CN1CCC(c2cc3cn(-c4ccc(CNCCCNC(=N)N)cc4)c(=O)nc3[nH]2)C1` (stereo not drawn) [Compound 2038a], the “E. coli ATCC25922 MIC” value is “+ (a “+” indicates that the compound has an MIC value of 16 micrograms/ml or less)”. `NCCCNCCCCCn1cc2cc(-c3ccc(S(=O)(=O)NC4CCNCC4)cc3)[nH]c2nc1=O` [Compound 873]: the “E. coli ATCC25922 MIC” value is listed as “+ (a “+” indicates that the compound has an MIC value of 16 micrograms/ml or less)”. For the compound `N=C(N)NCCCNCc1ccc(-n2cc3cc(-c4ccc(C(NC5CNC5)C(F)(F)F)cc4)[nH]c3nc2=O)cc1` (stereo not drawn) [Compound 1431], the “E. coli ATCC25922 MIC” value is recorded as “+ (a “+” indicates that the compound has an MIC value of 16 micrograms/ml or less)”.

As to `NCc1ccc(-n2cc3cc(-c4cc(F)c(C(=O)NC5CCNCC5)c(F)c4)[nH]c3nc2=O)cc1` [Compound 258], the MIC was less than 16 µg/mL. With `CCOCCn1cc(CCNO)c2ccc(-n3cc4cc(CCS(=O)(=O)NC5CCNCC5)[nH]c4nc3=O)cc21` [Compound 1209], the MIC is greater than 16 µg/mL. Regarding `N=C(N)NCCCNC(=O)c1ccc(-n2cc3cc(-c4ccc(S(=O)(=O)N(CC5COc6ccccc6O5)C5CCNCC5)cc4)[nH]c3nc2=O)cc1` (stereo not drawn) [Compound 1010], the “E. coli ATCC25922 MIC” value is on record as “+ (a “+” indicates that the compound has an MIC value of 16 micrograms/ml or less)”.

On to `CC(N)CCOc1cccc(-c2cc3cn(-c4ccc(CNCCCNC(=N)N)cc4)c(=O)nc3[nH]2)c1` (stereo not drawn) [Compound 1439], for which the “E. coli ATCC25922 MIC” value is listed as “+ (a “+” indicates that the compound has an MIC value of 16 micrograms/ml or less)”. Consider `CC(C)(C)NCC(=O)Nc1ccc(-c2cc3cn(-c4ccc(C(=O)NCCCNC(=N)N)cc4)c(=O)nc3[nH]2)cc1` [Compound 1281], for which the “E. coli ATCC25922 MIC” value is recorded as “+ (a “+” indicates that the compound has an MIC value of 16 micrograms/ml or less)”. For `O=c1nc2[nH]c(-c3ccc(S(=O)(=O)NC4CCNCC4)cc3)cc2cn1-c1cccc(OC2CCNC2)c1` (stereo not drawn) [Compound 1148], the MIC was greater than 16 µg/mL. With `N=C(N)NCCCNCc1ccc(-n2cc3cc(-c4cccc(S(=O)(=O)N(CCn5cccn5)C5CCNCC5)c4)[nH]c3nc2=O)cc1` [Compound 1176], the “E. coli ATCC25922 MIC” value is “+ (a “+” indicates that the compound has an MIC value of 16 micrograms/ml or less)”.

For the compound `N#CCCCN(C1CCNCC1)S(=O)(=O)c1ccc(-c2cc3cn(-c4ccc(CNCCCNC(=N)N)cc4)c(=O)nc3[nH]2)cc1` [Compound 842], the “E. coli ATCC25922 MIC” value is “+ (a “+” indicates that the compound has an MIC value of 16 micrograms/ml or less)”. On to `N=C(N)NCCCCOc1ccc(-c2cn3cc(-c4ccc(Br)cc4)[nH]c3nc2=O)cc1` [Compound 813], for which the minimum inhibitory concentration (MIC) was greater than 16 µg/mL.

Turning to `NCCCNCc1ccc(-n2cc3cc(COc4ccccc4)[nH]c3nc2=O)cc1` [Compound 626], the MIC was greater than 16 µg/mL.

In the case of `NCC(O)Cn1cc2cc(-c3ccc(S(=O)(=O)NC4CCNCC4)cc3)[nH]c2nc1=O` (stereo not drawn) [Compound 1149], the minimal inhibitory concentration (MIC) was greater than 16 µg/mL. Consider `CN(C)CCCOc1cccc(-c2cc3cn(-c4ccc(CNC(=O)CCNC(=N)N)cc4)c(=O)nc3[nH]2)c1` [Compound 1202], for which the minimum inhibitory concentration (MIC) was greater than 16 µg/mL.

`CN(CCCO)C(=O)c1cc(-c2cc3cn(-c4ccc(CNCCCNC(=N)N)cc4)c(=O)nc3[nH]2)cc(N2CCNCC2)c1` [Compound 940]: the “E. coli ATCC25922 MIC” value was “+ (a “+” indicates that the compound has an MIC value of 16 micrograms/ml or less)”.

Consider `N=C(N)NCCCNCc1ccc(-n2cc3cc(-c4cccc(OCC(F)(F)CN)c4)[nH]c3nc2=O)cc1` [Compound 1404], for which the “E. coli ATCC25922 MIC” value is recorded as “− (a “−” indicates that the compound has an MIC value greater than 16 micrograms/ml)”.
